The target in data set [1] is human MCH1 receptor (Homo sapiens, UniProt Q99705). Description: Functional assay: intracellular calcium mobilization (antagonist potency Kb). It counts as cell-based. Details: expressed in transfected cells; host or cells: COS-7 cells, transient, DEAE-dextran, plasmid pEXJ.HR-TL231 (ATCC 203197). How it is done:
Intracellular calcium mobilization assays for the MCH1 receptor were carried out using plasmid pEXJ.HR-TL231 (ATCC Accession No. 203197). COS-7 cells were transiently transfected with DNA encoding the MCH1 receptor utilizing the DEAE-dextran method as described above. The intracellular free calcium concentration was measured by fluorescent imaging using the calcium sensitive fluorscent dye Fluo-3. COS-7 cells expressing the human MCH1 receptor were seeded onto sterile 96 well plates, washed with Hank's balanced salt solution (HBSS), containing 20 mM HEPES, 2.5 mM probenecid, and 0.1% BSA, and loaded with the same buffer containing 3.8 μM Fluo-3 for 1 hour at 37° C. After washing with HBSS to remove the fluo-3 solution, cells were equilibrated for 10 minutes.

The mark [2] stands for this setting: Table 1, cloned human MCH1 receptor, functional assay, read-out: Kb (nM) hMCH1.
[3] abbreviates: Table 2, antagonist potency at the human MCH1 receptor, read-out: hMCH1 Kb.
Where [4] appears, read: Table 3, antagonist potency at the human MCH1 receptor, read-out: hMCH1 Kb.
Where [5] appears, read: read-out: hMCH1 Kb, Table 3, antagonist potency at the human MCH1 receptor.

Where a name gives a salt, the structure may show the parent alone. Read-outs that look alike come from different tables or passages of the source.

Sequence of human MCH1 receptor (Q99705 whole entry): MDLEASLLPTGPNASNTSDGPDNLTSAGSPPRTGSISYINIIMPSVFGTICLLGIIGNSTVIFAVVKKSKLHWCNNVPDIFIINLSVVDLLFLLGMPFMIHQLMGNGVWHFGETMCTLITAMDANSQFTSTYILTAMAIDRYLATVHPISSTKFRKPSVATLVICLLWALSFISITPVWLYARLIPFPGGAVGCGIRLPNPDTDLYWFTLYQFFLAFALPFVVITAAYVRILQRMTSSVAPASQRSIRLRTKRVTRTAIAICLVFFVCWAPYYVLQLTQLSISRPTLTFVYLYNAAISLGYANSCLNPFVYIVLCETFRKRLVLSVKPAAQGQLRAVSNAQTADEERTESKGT

Compound `O=C(CCCN1CCC(NC(=O)c2ccccc2)CC1)c1ccc(Cl)cc1` (as salt: HCl) [Example 28, 1-[3-(4-CHLOROBENZOYL)]PROPYL-4-BENZAMIDOPIPERIDINE] had a melting point of 243 to 244 °C.

As for `COCC1=C(C(=O)OC)C(c2ccc(F)c(F)c2)N(C(=O)NCCCN2CCC(OC(C)=O)(c3ccccc3)CC2)C(=O)N1` (stereo not drawn) (as salt: hydrochloride) [Example 3, (1)-1,2,3,6-TETRAHYDRO-1-{N-[3-(4-O-ACETYL)-4-PHENYLPIPERIDIN-1-YL]PROPYL}CARBOXAMIDO-5-METHOXYCARBONYL-4-METHOXYMETHYL-6-(3,4-DIFLUOROPHENYL)-2-OXOPYRIMIDINE], the melting point lay in the range of 82 to 84 °C. Still for that read-out and setting: as for `COC(=O)C1=C(C)NC(=O)N(C(=O)NCCCN2CCC3(CC2)OCc2ccccc23)C1c1ccc(F)c(F)c1` (stereo not drawn) (as salt: hydrochloride) [Example 20, 4-(3,4-DIFLUORPHENYL)-6-METHYL-2-OXO-3-{[3-(4-SPIRO[ISOBENZO-FURAN-1(3H),4′-PIPERIDINE]PROPYL}-1,2,3,4-TETRAHYDROPYRIMIDINE-5-CARBOXYLIC ACID METHYL ESTER], the figure is 178 to 182 °C. Same read-out and setting: for `COC(=O)C1=C(C)NC(=O)N(C(=O)NCCCN2CCN(c3ccccc3C)CC2)C1c1ccc(F)c(F)c1` (stereo not drawn) (as salt: hydrochloride) [Example 35, 1,2,3,6-TETRAHYDRO-1{N-[4-(2′-METHYL-PHENYL)PIPERAZIN-1-YL]-PROPYL}-CARBOXAMIDO-4-METHYL-6-(3,4-DIFLUOROPHENYL)-2-OXO-PYRIMIDINE] the value was 66 to 71 °C. As for `COC(=O)C1=C(C)NC(=O)N(C(=O)NCCCN2CCC3(CCc4ccccc43)CC2)C1c1ccc2nonc2c1` (racemic) [Example 21], in data set [1] (setting [2]), the Kb turned out to be 28 nM. In turn, `COC(=O)C1=C(C)NC(=O)N(C(=O)NCCCN2CCC3(CC2)OCc2ccccc23)C1c1ccc2nonc2c1` (single isomer, unassigned) (as salt: hydrochloride) [Example 18] registered a melting point of 180 to 182 °C.

On to `COC(=O)C1=C(C)NC(=O)N(C(=O)NCCCN2CCN(c3ccccc3[N+](=O)[O-])C[C@@H]2C)C1c1ccc(F)c(F)c1` (single isomer, unassigned; (+)) (as salt: HCl) [Example 34], for which the melting point lay within 150 to 153 °C. Still for that read-out and setting: as for `COCC1=C(C(=O)OC)C(c2ccc(F)c(F)c2)N(C(=O)NCCCN2CCC(c3cccc4ccccc34)CC2)C(=O)N1` (single isomer, unassigned; (+)) [Example 14, (+)-1,2,3,6-TETRAHYDRO-1-{N-[4-(1-NAPHTHYL)-PIPERIDIN-1-YL]PROP-YL}CARBOXAMIDO-4-METHOXYMETHYL-6-(3,4-DIFLUOROPHENYL)-2-OXO-PYRIMIDINE-5-CARBOXYLIC ACID METHYL ESTER], the figure is 168 to 172 °C; as for `COCC1=C(C(=O)OC)C(c2ccc(F)c(F)c2)N(C(=O)NCCCN2CCC(O)(c3ncccc3C)CC2)C(=O)N1` (single isomer, unassigned; (+)) [Example 16], 132 to 135 °C. With `COC(=O)C1=C(C)NC(=O)N(C(=O)NCCCN2CCN(c3ccccc3[N+](=O)[O-])C[C@@H]2C)C1c1ccc(F)c(F)c1` (single isomer, unassigned; (+)) [Example 34], the Kb in data set [1] (setting [2]) turned out to be 182 nM. In the case of `COCC1=C(C(=O)OC)C(c2ccc(F)c(F)c2)N(C(=O)NCCCN2CC=C(c3cccc(NC(C)=O)c3)CC2)C(=O)N1` (stereo not drawn) [Example 2, METHYL 3-[(3-4-[3-(ACETYLAMINO)PHENYL]-1,2,3,6-TETRAHYDRO-1-PYR-IDINYLPROPYL)AMINO]CARBONYL-4-(3,4-DIFLUOROPHENYL)-6-(METHOXY-METHYL)-2-OXO-1,2,3,4-TETRAHYDRO-5-PYRIMIDINECARBOXYLATE], the Kb in data set [1] (setting [2]), in data set [1] (setting [3]) and in data set [1] (setting [4]) was 18 nM each time. With `COCC1=C(C(=O)OC)C(c2ccc(F)c(F)c2)N(C(=O)NCCCN2CCC(OC(C)=O)(c3ccccc3)CC2)C(=O)N1` (stereo not drawn) [Example 3, (1)-1,2,3,6-TETRAHYDRO-1-{N-[3-(4-O-ACETYL)-4-PHENYLPIPERIDIN-1-YL]PROPYL}CARBOXAMIDO-5-METHOXYCARBONYL-4-METHOXYMETHYL-6-(3,4-DIFLUOROPHENYL)-2-OXOPYRIMIDINE], the Kb in data set [1] was determined as 201 nM. Take `O=C(NC1CCN(CCC2CCc3ccccc3C2=O)CC1)c1ccccc1` (stereo not drawn) [Example 5]: the melting point fell in the range of 158 to 159 °C. Further, in data set [1] (setting [2]), the Kb was determined as 258 nM. Take `CCCCN(CCCC)c1ccc(CN2CCC(CNC(=O)N3C(=O)NC(C)=C(C(=O)OC)C3c3ccc4nonc4c3)CC2)cc1` (stereo not drawn) [Example 6]: the Kb in data set [1] (setting [2]), in data set [1] (setting [3]) and in data set [1] (setting [4]) was 42 nM throughout.

Turning to `COC(=O)C1=C(C)NC(=O)N(C(=O)NCCCN2CCC(c3ccccc3)CC2)C1c1ccc2nonc2c1` (stereo not drawn) [Example 8, 6-(BENZOFURAZAN-5-YL)-1,2,3,6-TETRAHYDRO-5-METHOXYCARBONYL-4-METHYL-2-OXO-1-{N-[3-(4-PHENYLPIPERIDIN-1-YL)PROPYL]}CARBOXAMIDO-PYRIMIDINE], in data set [1] (setting [2]), the Kb is 88 nM. Same read-out and setting: as for `COC(=O)C1=C(C)NC(=O)N(C(=O)NCCCN2CCC(c3ccccc3)CC2)C1c1ccc(F)c(F)c1` (stereo not drawn) [Example 11, 6-(3,4-DIFLOUROPHENYL)-1,2,3,6-TETRAHYDRO-5-METHOXYCARBONYL-4-METHYL-2-OXO-1-{N-[3-(4-PHENYLPIPERIDIN-1-YL) PROPYL]}CARBOXAMIDO-PYRIMIDINE], the figure is 331 nM. On to `CCCCN(CCCC)c1ccc(CNC[C@H]2CC[C@H](NC(=O)c3cccc4ccccc34)CC2)cc1` [Example 13, N1-[4-([4-(DIBUTYLAMINO)BENZYL]AMINOMETHYL)CYCLOHEXYL]-1-NAPHTH-AMIDE], for which the Kb in data set [1] (setting [2]), in data set [1] (setting [3]) and in data set [1] (setting [4]) was 284 nM in each case. `COC(=O)C1=C(C)NC(=O)N(C(=O)NCCCN2CCC3(CC2)OCc2ccccc23)C1c1ccc(F)c(F)c1` (stereo not drawn) [Example 20, 4-(3,4-DIFLUORPHENYL)-6-METHYL-2-OXO-3-{[3-(4-SPIRO[ISOBENZO-FURAN-1(3H),4′-PIPERIDINE]PROPYL}-1,2,3,4-TETRAHYDROPYRIMIDINE-5-CARBOXYLIC ACID METHYL ESTER]: the Kb came to 5 nM in data set [1]; 5 nM in data set [1] (read-out: Kb (nM) hMCH1, Table 1, cloned human MCH1 receptor, functional assay); 5 nM in data set [1] (setting [5]). On to `Fc1ccc(C(c2ccc(F)cc2)N2CCN(C/C=C/c3ccccc3)CC2)cc1` [Example 26, 1-[BIS(4-FLUOROPHENYL)METHYL]-4-(3-PHENYL-2-PROPENYL)PIPERAZINE], for which the Kb in data set [1] (setting [2]) and in data set [1] (setting [3]) was 260 nM in each case.

Turning to `Cc1cc(O)cc(O)c1/C=N/c1ccc(-c2cn3ccccc3n2)cc1` [Example 27], the Kb in data set [1] (setting [2]) and in data set [1] (setting [3]) was 279 nM each time. Consider `O=C(CCCN1CCC(O)(c2ccc(Cl)cc2)CC1)c1ccc(Cl)cc1` [Example 29], for which the Kb in data set [1] came out at 9 nM; in data set [1] (read-out: hMCH1 Kb, Table 2, antagonist potency at the human MCH1 receptor) it was 9 nM; in data set [1] (setting [5]), 9 nM. As for `CN1CN(c2ccccc2)C2(CCN(CCCC(=O)c3ccc(F)cc3)CC2)C1=O` [Example 30, N-METHYL-8-[4-(4-FLUOROPHENYL)-4-OXOBUTYL]-1-PHENYL-1,3,8-TRI-AZASPIRO-[4.5]DECAN-4-ONE], the Kb in data set [1] (setting [2]) and in data set [1] (setting [3]) was 479 nM each time. For `O=[N+]([O-])c1ccccc1S(=O)(=O)n1nnc2ccccc21` [Example 31, 1H-1,2,3-BENZOTRIAZOL-1-YL (2-NITROPHENYL) SULFONE], in data set [1] (setting [2]), the Kb turned out to be 7 nM. `COC(=O)C1=C(C)NC(=O)N(C(=O)NCCCN2CCC3(CCc4ccccc43)CC2)C1c1ccc(F)c(F)c1` (stereo not drawn) [Example 32, (1)-1,2,3,6-TETRAHYDRO-1-{N-[4-(DIHYDROINDENE)-1-YL}PROPYL}-CARBOXAMIDO-5-METHOXYCARBONYL-2-OXO-6-(3,4-DIFLUORO)-4-METHYL-PYRIMIDINE] registered a melting point of 150 to 153 °C. Further, the Kb in data set [1] amounted to 67 nM.

Take `COC(=O)C1=C(C)NC(=O)N(C(=O)NCCCN2CCN(c3ccccc3C)CC2)C1c1ccc(F)c(F)c1` (stereo not drawn) [Example 35, 1,2,3,6-TETRAHYDRO-1{N-[4-(2′-METHYL-PHENYL)PIPERAZIN-1-YL]-PROPYL}-CARBOXAMIDO-4-METHYL-6-(3,4-DIFLUOROPHENYL)-2-OXO-PYRIMIDINE]: in data set [1] (setting [2]), the Kb amounted to 276 nM. As for “(1)-1,2,3,6-TETRAHYDRO-1-{N-[4-(3,4-DIHYDRO-2-OXOSPIRONAPHTHALENE-1(2H))-PIPERIDINE-1-YL]PROPYL}CARBOXAMIDO-5-METHOXY-CARBONYL-2-OXO-6-(3,4-DIFLUOROPHENYL)-4-METHYL-PYRIMIDINE [Example 24]”, in data set [1] (setting [2]), the Kb stood at 102 nM. Still for that read-out and setting: for “(1)-1,2,3,6-TETRAHYDRO-1-{N-[4-(3,4-DIHYDRO-2-OXOSPIRONAPHTHALENE-1(2H))-PIPERIDINE-1-YL]PROPYL}CARBOXAMIDO-5-METHOXYCARBONYL-2-OXO-6-(3,4-BENZOFURAZAN)-4-METHYLPYRIMIDINE HYDROCHLORIDE [Example 23]” the value was 68 nM.

Usually melting point stands for the temperature of the solid-liquid transition. Broadly, the Kb is the equilibrium dissociation constant of an antagonist, usually derived from a functional assay.

For the origin of these results see patent US6720324B2, “Selective melanin concentrating hormone-1 (MCH1) receptor antagonists and uses thereof” (Synaptic Pharmaceutical Corporation, priority 2000, dated 2004).
